Columns and labels:
[1] = system: prostate cancer (LNCaP) cells; conditions: via peroxiredoxin acetylation, published results; cited from earlier work
α-tubulin acetylation = conditions: published results; cited from earlier work
primary cortical neurons = assay: HCA-induced neurodegeneration assay (oxidative stress, glutathione depletion); assay type: cell-based; conditions: at 0.5 μM; protection declined at higher concentrations due to neurotoxicity
Protocol: FIG. 1 contains bar graphs of % cell survival vs. concentration for HCA evaluation of II-ING-66 using the glutathione depletion neurotoxicity model of oxidative stress. Immature primary cortical neurons were treated with the test compound alone or in the presence of HCA. Cell viability was assessed at 24 h using the MTT assay. Bar plot represents percentage control mean±SEM of viable cells (n=3). *p<0.05 and **p<0.01 compared to control (DMSO) (n=3/group). HCA oxidative stress assay.
Compound II-ING-66 was examined in a model of oxidative stress induced by homocysteic acid (HCA), where neurons were treated with the test compound alone or in the presence of HCA.
It has been shown that HDAC6 inhibition protects against neuronal degeneration and stimulates neurite outgrowth in dorsal root ganglion neurons, therefore indicating methods of treating CNS diseases. Accordingly, present compounds were examined in a model of oxidative stress induced by homocysteic acid (HCA). This model leads to depletion of glutathione, the major intracellular antioxidant. HDAC6 inhibition rescues neuronal death in this model, possibly by causing hyperacetylation of peroxiredoxins. […] (A. P. Kozikowski et al., J. Med. Chem. 2007, 50, 3054-61.) […]

SMILES	Concentration protecting from hydrogen peroxide-induced death [1]	Concentration inducing α-tubulin acetylation (α-tubulin acetylation)	Neuroprotection in HCA-induced neurodegeneration (primary cortical neurons)
O=C(CCCCCCC(=O)Nc1ccc([C@H]2O[C@@H](CSc3nc(-c4ccccc4)c(-c4ccccc4)o3)C[C@@H](c3ccc(CO)cc3)O2)cc1)NO [Tubacin]	8 µM	5 µM	
CC(/C=C/C(=O)NO)=C\[C@@H](C)C(=O)c1ccc(N(C)C)cc1 [TSA, Trichostatin A]			moderately neuroprotective
